PubChem BioAssay AID1919015 (Molecular Pharmacology Branch, DTP, NCI, 2023)

Tested on: OVCAR-5 complex spheroids with HUVEC/MSC, viability, % test/control
Experiment: Anticancer human tumor OVCAR-5 cell line growth inhibition [AhR];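 also: spheroids exposed to compounds for 7 days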;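 as to viability, T/C: 100% = DMSO vehicle control wells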
Conditions: for IC50: curve of first compound; for viability, T/C: stronger effect = lower value; active = viability on the fitted dose curve at most 10% of control; inactive = the rest
In short: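 Complex tumor spheroids co-cultured with HUVEC and human MSC stroma; AhR antagonists tested in combination with standard-of-care and investigational agents. Top concentration at or near clinical Cmax (else 10 microM), half-log dilutions; growth expressed as percent test/control.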

[1] = second compound 0.1 µM, first compound 0.0316 µM
[2] = second compound 0.1 µM, first compound 0.1 µM
[3] = second compound 0.1 µM, first compound 0.316 µM
[4] = second compound 0.1 µM, first compound 1 µM
[5] = second compound 0.1 µM, first compound 3.16 µM
[6] = second compound 0.1 µM, first compound 10 µM
[7] = second compound 0.316 µM, first compound 0.0316 µM
[8] = second compound 0.316 µM, first compound 0.1 µM
[9] = second compound 0.316 µM, first compound 0.316 µM
[10] = second compound 0.316 µM, first compound 1 µM
[11] = second compound 0.316 µM, first compound 3.16 µM
[12] = second compound 0.316 µM, first compound 10 µM
[13] = second compound 1 µM, first compound 0.0316 µM
[14] = second compound 1 µM, first compound 0.1 µM
[15] = second compound 1 µM, first compound 0.316 µM
[16] = second compound 1 µM, first compound 1 µM
[17] = second compound 1 µM, first compound 3.16 µM
[18] = second compound 1 µM, first compound 10 µM
[19] = second compound 3.16 µM, first compound 0.0316 µM
[20] = second compound 3.16 µM, first compound 0.1 µM
[21] = second compound 3.16 µM, first compound 0.316 µM
[22] = second compound 3.16 µM, first compound 1 µM
[23] = second compound 3.16 µM, first compound 3.16 µM
[24] = second compound 3.16 µM, first compound 10 µM
[25] = second compound 10 µM, first compound 0.0316 µM
[26] = second compound 10 µM, first compound 0.1 µM
[27] = second compound 10 µM, first compound 0.316 µM
[28] = second compound 10 µM, first compound 1 µM
[29] = second compound 10 µM, first compound 3.16 µM
[30] = second compound 10 µM, first compound 10 µM

Nc1ccccc1NC(=O)c1ccc(CNC(=O)OCc2cccnc2)cc1 + CC(CO)NC(=O)c1cc(-c2ccc(Cl)cc2)nn(-c2cnn(C)c2)c1=O
514 nM: IC50 (second compound 0.316 µM)
inactive: viability, T/C [1] 92% | viability, T/C [2] 80.7% | viability, T/C [3] 59.7% | viability, T/C [4] 32.3% | viability, T/C [5] 19.5% | viability, T/C [7] 95.9% | viability, T/C [8] 86.6% | viability, T/C [9] 63.2% | viability, T/C [10] 31% | viability, T/C [11] 18.3% | viability, T/C [13] 95.2% | viability, T/C [14] 85.3% | viability, T/C [15] 63.6% | viability, T/C [16] 30.9% | viability, T/C [17] 17.4% | viability, T/C [19] 85.9% | viability, T/C [20] 77.8% | viability, T/C [21] 59.7% | viability, T/C [22] 27.9% | viability, T/C [23] 14.6% | viability, T/C [25] 83.9% | viability, T/C [26] 81.3% | viability, T/C [27] 55.1% | viability, T/C [28] 24.6% | viability, T/C [29] 12.8%
512 nM: IC50 (second compound 1 µM)
481 nM: IC50 (second compound 0.1 µM)
active: viability, T/C [6] 7.46% | viability, T/C [12] 7.56% | viability, T/C [18] 7.87% | viability, T/C [24] 6.5% | viability, T/C [30] 4.72%
397 nM: IC50 (second compound 10 µM)
444 nM: IC50 (second compound 3.16 µM)

O=C(C=Cc1cccc(S(=O)(=O)Nc2ccccc2)c1)NO + Cc1cncc(-c2nc(NCCc3c[nH]c4ccccc34)c3ncn(C(C)C)c3n2)c1
inactive: viability, T/C [1] 95.8% | viability, T/C [2] 87.4% | viability, T/C [3] 70.6% | viability, T/C [4] 52.4% | viability, T/C [5] 30.4% | viability, T/C [7] 95.1% | viability, T/C [8] 88.1% | viability, T/C [9] 70.2% | viability, T/C [10] 52.1% | viability, T/C [11] 24.9% | viability, T/C [13] 87.9% | viability, T/C [14] 88.3% | viability, T/C [15] 70% | viability, T/C [16] 55.3% | viability, T/C [17] 25.1% | viability, T/C [19] 79.4% | viability, T/C [20] 75.8% | viability, T/C [21] 66% | viability, T/C [22] 49% | viability, T/C [23] 23.1% | viability, T/C [25] 23.3% | viability, T/C [26] 26.7% | viability, T/C [27] 23.4% | viability, T/C [28] 24.9% | viability, T/C [29] 16.4% | viability, T/C [30] 2.82%
< 31.6 nM: IC50 (second compound 10 µM)
891 nM: IC50 (second compound 3.16 µM)
1130 nM: IC50 (second compound 0.1 µM) | IC50 (second compound 1 µM)
active: viability, T/C [6] 7.81% | viability, T/C [12] 6.95% | viability, T/C [18] 6.35% | viability, T/C [24] 5.52%
1010 nM: IC50 (second compound 0.316 µM)

Nc1ncn(C2CC(O)C(CO)S2)c(=O)n1 (stereo not given) + Cc1ccccc1N=Nc1ccc(NC(=O)c2ccnn2C)c(C)c1
> 300 nM: IC50 (second compound 0.1 µM) | IC50 (second compound 0.316 µM) | IC50 (second compound 1 µM) | IC50 (second compound 3.16 µM) | IC50 (second compound 10 µM)
inactive: viability, T/C (second compound 0.1 µM, first compound 0.000949 µM) 105% | viability, T/C (second compound 0.1 µM, first compound 0.003 µM) 108% | viability, T/C (second compound 0.1 µM, first compound 0.00949 µM) 105% | viability, T/C (second compound 0.1 µM, first compound 0.03 µM) 101% | viability, T/C (second compound 0.1 µM, first compound 0.0949 µM) 87.4% | viability, T/C (second compound 0.1 µM, first compound 0.3 µM) 79% | viability, T/C (second compound 0.316 µM, first compound 0.000949 µM) 113% | viability, T/C (second compound 0.316 µM, first compound 0.003 µM) 109% | viability, T/C (second compound 0.316 µM, first compound 0.00949 µM) 112% | viability, T/C (second compound 0.316 µM, first compound 0.03 µM) 106% | viability, T/C (second compound 0.316 µM, first compound 0.0949 µM) 86.5% | viability, T/C (second compound 0.316 µM, first compound 0.3 µM) 77.8% | viability, T/C (second compound 1 µM, first compound 0.000949 µM) 114% | viability, T/C (second compound 1 µM, first compound 0.003 µM) 115% | viability, T/C (second compound 1 µM, first compound 0.00949 µM) 113% | viability, T/C (second compound 1 µM, first compound 0.03 µM) 108% | viability, T/C (second compound 1 µM, first compound 0.0949 µM) 95% | viability, T/C (second compound 1 µM, first compound 0.3 µM) 82.5% | viability, T/C (second compound 3.16 µM, first compound 0.000949 µM) 112% | viability, T/C (second compound 3.16 µM, first compound 0.003 µM) 112% | viability, T/C (second compound 3.16 µM, first compound 0.00949 µM) 114% | viability, T/C (second compound 3.16 µM, first compound 0.03 µM) 110% | viability, T/C (second compound 3.16 µM, first compound 0.0949 µM) 95.6% | viability, T/C (second compound 3.16 µM, first compound 0.3 µM) 80% | viability, T/C (second compound 10 µM, first compound 0.000949 µM) 107% | viability, T/C (second compound 10 µM, first compound 0.003 µM) 111% | viability, T/C (second compound 10 µM, first compound 0.00949 µM) 108% | viability, T/C (second compound 10 µM, first compound 0.03 µM) 108% | viability, T/C (second compound 10 µM, first compound 0.0949 µM) 89.2% | viability, T/C (second compound 10 µM, first compound 0.3 µM) 78.8%

Nc1ccccc1NC(=O)c1ccc(CNC(=O)OCc2cccnc2)cc1 + Cc1cncc(-c2nc(NCCc3c[nH]c4ccccc34)c3ncn(C(C)C)c3n2)c1
< 31.6 nM: IC50 (second compound 10 µM)
active: viability, T/C [6] 9.54% | viability, T/C [12] 7.96% | viability, T/C [18] 7.92% | viability, T/C [24] 6.41% | viability, T/C [27] 13.1% | viability, T/C [28] 14.3% | viability, T/C [29] 2.83% | viability, T/C [30] 0.51%
inactive: viability, T/C [1] 86% | viability, T/C [2] 84.7% | viability, T/C [3] 69.5% | viability, T/C [4] 47.4% | viability, T/C [5] 19.9% | viability, T/C [7] 86% | viability, T/C [8] 79.5% | viability, T/C [9] 66.8% | viability, T/C [10] 44.3% | viability, T/C [11] 20.1% | viability, T/C [13] 80.4% | viability, T/C [14] 77.2% | viability, T/C [15] 68.8% | viability, T/C [16] 42.8% | viability, T/C [17] 16.6% | viability, T/C [19] 71.2% | viability, T/C [20] 71.4% | viability, T/C [21] 62.7% | viability, T/C [22] 36% | viability, T/C [23] 13.5% | viability, T/C [25] 10.4% | viability, T/C [26] 10.3%
724 nM: IC50 (second compound 1 µM)
731 nM: IC50 (second compound 0.316 µM)
834 nM: IC50 (second compound 0.1 µM)
549 nM: IC50 (second compound 3.16 µM)
